The numbers were not newly measured in patent US20020192834A1, “Analysis of caffeine” (priority 2001, published 2002), which cites them from elsewhere.

For the data set the following is noted: after consuming caffeine in coffee; background statement.

On to `Cn1c(=O)c2c(ncn2C)n(C)c1=O` [caffeine, trimethylxanthine], for which the half-life of caffeine result is “about 6 hours”.
